Results taken from patent US9018224B2, “Substituted cyclopropyl compounds useful as GPR119 agonists” (Merck Sharp & Dohme Corp., priority 2011, dated 2015).

biological target: T1, human GPR119 (Homo sapiens, UniProt Q8TDV5); test: Measurement of GPR119 signaling by cAMP (LANCE cAMP kit or HTRF) in HEK293 cells transfected with human GPR119; format: cell-based; conditions: agonist cAMP response in HEK293 cells stably transfected with human GPR119; patent does not say which of the two cAMP formats (LANCE or HTRF)
T1 sequence (Q8TDV5 1-308 limits assumed): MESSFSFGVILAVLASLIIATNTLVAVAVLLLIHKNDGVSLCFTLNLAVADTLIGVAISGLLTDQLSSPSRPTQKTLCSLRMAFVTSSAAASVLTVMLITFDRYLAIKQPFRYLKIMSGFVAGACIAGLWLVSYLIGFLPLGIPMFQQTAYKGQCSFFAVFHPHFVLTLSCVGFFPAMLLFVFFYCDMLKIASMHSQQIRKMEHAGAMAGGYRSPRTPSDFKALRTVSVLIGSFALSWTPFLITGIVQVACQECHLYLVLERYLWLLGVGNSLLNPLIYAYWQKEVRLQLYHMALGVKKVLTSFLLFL
Summary of the method: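 LANCE TR-FRET cAMP readout; detection with Eu-SA/biotin-cAMP tracer for 3 h, signal converted to cAMP via standard curve, duplicates, 4-parameter fit vs DMSO basal and internal agonist maximum.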

EC50 [nM]	SMILES
1	O=C(Cc1ccc(OCC[C@@H]2C[C@@H]2C2CCN(c3ncc(Cl)cn3)CC2)cc1F)N1CCn2nc(C(F)(F)F)nc2C1 [Example 134]
0.54	O=C(Cc1ccc(OCC[C@@H]2C[C@@H]2C2CCN(c3ncc(Cl)cn3)CC2)cc1F)N1CCn2ncnc2C1 [Example 135]
0.73	Cc1nc2c(o1)CCN(C(=O)Cc1ccc(OCC[C@@H]3C[C@@H]3C3CCN(c4ncc(Cl)cn4)CC3)cc1F)C2 [Example 136]
3.9	COc1nnc2n1CCN(C(=O)Cc1ccc(OCC[C@@H]3C[C@@H]3C3CCN(c4ncc(Cl)cn4)CC3)cc1F)C2 [Example 137]
1.5	O=C(Cc1ccc(OCC[C@@H]2C[C@@H]2C2CCN(c3ncc(Cl)cn3)CC2)cc1F)N1CCn2cnnc2C1 [Example 138]
2	O=C(Cc1ccc(OCC[C@@H]2C[C@@H]2C2CCN(c3ncc(Cl)cn3)CC2)cc1F)N1CCc2[nH]ncc2C1 [Example 139]
3.2	Cc1n[nH]c2c1CN(C(=O)Cc1ccc(OCC[C@@H]3C[C@@H]3C3CCN(c4ncc(Cl)cn4)CC3)cc1F)CC2 [Example 140]
1.2	Cc1nc2c(o1)CN(C(=O)Cc1ccc(OCC[C@@H]3C[C@@H]3C3CCN(c4ncc(Cl)cn4)CC3)cc1F)CC2 [Example 141]
3.1	O=C(Cc1ccc(OCC[C@@H]2C[C@@H]2C2CCN(c3ncc(Cl)cn3)CC2)cc1F)N1CCc2c(C3CC3)n[nH]c2C1 [Example 142]
4.7	O=C(Cc1ccc(OCC[C@@H]2C[C@@H]2C2CCN(c3ncc(Cl)cn3)CC2)cc1F)N1CCc2oc(C3CC3)nc2C1 [Example 143]
7.2	O=C(c1cn2c(n1)CN(C(=O)Cc1ccc(OCC[C@@H]3C[C@@H]3C3CCN(c4ncc(Cl)cn4)CC3)cc1F)CC2)C1CC1 [Example 144]
6.3	Cn1ccc2c1CCN(C(=O)Cc1ccc(OCC[C@@H]3C[C@@H]3C3CCN(c4ncc(Cl)cn4)CC3)cc1F)C2 [Example 145]
3.1	O=C(Cc1ccc(OCC[C@@H]2C[C@@H]2C2CCN(c3ncc(Cl)cn3)CC2)cc1F)N1CCc2[nH]nc(C(F)(F)F)c2C1 [Example 146]
2.9	O=C(Cc1ccc(OCC[C@@H]2C[C@@H]2C2CCN(c3ncc(Cl)cn3)CC2)cc1F)N1CCc2c(C(F)(F)F)n[nH]c2C1 [Example 147]
1.2	O=C(Cc1ccc(OCC[C@@H]2C[C@@H]2C2CCN(c3ncc(Cl)cn3)CC2)cc1F)N1CCn2nc(C3CC3)nc2C1 [Example 148]
1.1	O=C(Cc1ccc(OCC[C@@H]2C[C@@H]2C2CCN(c3ncc(Cl)cn3)CC2)cc1F)N1CCn2ccnc2C1 [Example 149]
3.2	O=C(Cc1ccc(OCC[C@@H]2C[C@@H]2C2CCN(c3ncc(Cl)cn3)CC2)cc1F)N1CCc2nc(C3CC3)oc2C1 [Example 150]
4.7	CCc1nnc2n1CCN(C(=O)Cc1ccc(OCC[C@@H]3C[C@@H]3C3CCN(c4ncc(Cl)cn4)CC3)cc1F)C2 [Example 151]
1.9	O=C(Cc1ccc(OCC[C@@H]2C[C@@H]2C2CCN(c3ncc(Cl)cn3)CC2)cc1F)N1CCc2[nH]nnc2C1 [Example 152]
1.6	CN(CCCO)C(=O)Cc1ccc(OCC[C@@H]2C[C@@H]2C2CCN(c3ncc(Cl)cn3)CC2)cc1F [Example 153]
0.41	CN(C(=O)Cc1ccc(OCC[C@@H]2C[C@@H]2C2CCN(c3ncc(Cl)cn3)CC2)cc1F)C1CCOC1 (stereo partly shown) [Example 154]
1.3	CN(C(=O)Cc1ccc(OCC[C@@H]2C[C@@H]2C2CCN(c3ncc(Cl)cn3)CC2)cc1F)C1CCOCC1 [Example 155]

EC50 [nM]	SMILES
2.8	CN(CC1CCCCO1)C(=O)Cc1ccc(OCC[C@@H]2C[C@@H]2C2CCN(c3ncc(Cl)cn3)CC2)cc1F (stereo partly shown) [Example 156]
2.4	CN(CC1CCOCC1)C(=O)Cc1ccc(OCC[C@@H]2C[C@@H]2C2CCN(c3ncc(Cl)cn3)CC2)cc1F [Example 157]
6.6	CN(Cc1n[nH]c(=O)[nH]1)C(=O)Cc1ccc(OCC[C@@H]2C[C@@H]2C2CCN(c3ncc(Cl)cn3)CC2)cc1F [Example 158]
3.7	CN(CC(N)=O)C(=O)Cc1ccc(OCC[C@@H]2C[C@@H]2C2CCN(c3ncc(Cl)cn3)CC2)cc1F [Example 159]
3.1	CCC(C)CN(C)C(=O)Cc1ccc(OCC[C@@H]2C[C@@H]2C2CCN(c3ncc(Cl)cn3)CC2)cc1F (stereo partly shown) [Example 160]
3.7	CC1CCC(N(C)C(=O)Cc2ccc(OCC[C@@H]3C[C@@H]3C3CCN(c4ncc(Cl)cn4)CC3)cc2F)CC1 (stereo partly shown) [Example 161]
1.3	CN(C(=O)Cc1ccc(OCC[C@@H]2C[C@@H]2C2CCN(c3ncc(Cl)cn3)CC2)cc1F)C1CCS(=O)(=O)C1 (stereo partly shown) [Example 162]
1.7	O=C(Cc1ccc(OCC[C@@H]2C[C@@H]2C2CCN(c3ncc(Cl)cn3)CC2)cc1F)N1CCC(O)CC1 [Example 163]
1.6	CN(C(=O)Cc1ccc(OCC[C@@H]2C[C@@H]2C2CCN(c3ncc(Cl)cn3)CC2)cc1F)C1CCCCC1 [Example 164]
2.6	CN(CCC1CCOCC1)C(=O)Cc1ccc(OCC[C@@H]2C[C@@H]2C2CCN(c3ncc(Cl)cn3)CC2)cc1F [Example 165]
2	CC(C)CN(C)C(=O)Cc1ccc(OCC[C@@H]2C[C@@H]2C2CCN(c3ncc(Cl)cn3)CC2)cc1F [Example 166]
7.6	CN(CC1CCCCC1)C(=O)Cc1ccc(OCC[C@@H]2C[C@@H]2C2CCN(c3ncc(Cl)cn3)CC2)cc1F [Example 167]
9.4	CN(CC(C)(C)C)C(=O)Cc1ccc(OCC[C@@H]2C[C@@H]2C2CCN(c3ncc(Cl)cn3)CC2)cc1F [Example 168]
3.2	CN(CCS(C)(=O)=O)C(=O)Cc1ccc(OCC[C@@H]2C[C@@H]2C2CCN(c3ncc(Cl)cn3)CC2)cc1F [Example 169]
1.7	CN(CCO)C(=O)Cc1ccc(OCC[C@@H]2C[C@@H]2C2CCN(c3ncc(Cl)cn3)CC2)cc1F [Example 170]
1.7	CCOC(=O)CN(C)C(=O)Cc1ccc(OCC[C@@H]2C[C@@H]2C2CCN(c3ncc(Cl)cn3)CC2)cc1F [Example 171]
0.6	O=C(Cc1ccc(OCC[C@@H]2C[C@@H]2C2CCN(c3ncc(Cl)cn3)CC2)cc1F)N1CCc2scnc2C1 [Example 172]
0.97	O=C(Cc1ccc(OCC[C@@H]2C[C@@H]2C2CCN(c3ncc(Cl)cn3)CC2)cc1F)N1Cc2sccc2C(O)C1 (stereo partly shown) [Example 173]
1.2	CC1c2cccn2CCN1C(=O)Cc1ccc(OCC[C@@H]2C[C@@H]2C2CCN(c3ncc(Cl)cn3)CC2)cc1F (stereo partly shown) [Example 174]
1.1	CC1CN(C(=O)Cc2ccc(OCC[C@@H]3C[C@@H]3C3CCN(c4ncc(Cl)cn4)CC3)cc2F)Cc2nnc(C(F)(F)F)n21 (stereo partly shown) [Example 175]
0.78	Cc1nc2c(s1)CN(C(=O)Cc1ccc(OCC[C@@H]3C[C@@H]3C3CCN(c4ncc(Cl)cn4)CC3)cc1F)CC2 [Example 176]
